Source: patent publication US8901307B2, “Chemical compounds 251” (AstraZeneca AB, priority 2008, dated 2014)
Structures can show the parent of a compound that is named as a salt. Where two headings read alike, the source gives them in different places.

Tests used:
human His-PIM2 [23-299] = molecular target: T1, human His-PIM2 [23-299] (Homo sapiens, UniProt Q9P1W9); assay: PIM2 in-vitro mobility shift assay (Caliper LC3000, FL-Ahx-Bad phosphorylation); type: biochemical; settings: 1.5 h; percent inhibition at 0.3 uM compound; read-out: PIM2 % I at 0.3 uM
T1 construct: purified human His-PIM2 [23-299] enzyme; His (N); host or cells: E. coli

human His-PIM1 [2-313] = molecular target: T2, human His-PIM1 [2-313] (Homo sapiens, UniProt P11309); assay: PIM1 in-vitro mobility shift assay (Caliper LC3000, FL-Ahx-Bad phosphorylation); type: biochemical; settings: 1.5 h, read-out: PIM1 % I at 0.3 uM
T2 construct: purified human His-PIM1 [2-313] enzyme; His (N); purchased University of Dundee, Scotland; host or cells: baculovirus system
How it was run: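 Compound preincubated 20 min at 25 °C with 2.4 nM PIM1, 3.6 µM FL-Ahx-Bad peptide and 240 µM ATP (1.2× mix concentrations). Reaction started with 24 mM MgCl2 mix, run 90 min at 25 °C, EDTA-stopped. Phospho/unphospho peptide separated by microfluidic mobility shift; percent inhibition from ratiometric turnover.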

[1] = percent inhibition at 0.3 uM compound

T1 sequence (Q9P1W9 23-299): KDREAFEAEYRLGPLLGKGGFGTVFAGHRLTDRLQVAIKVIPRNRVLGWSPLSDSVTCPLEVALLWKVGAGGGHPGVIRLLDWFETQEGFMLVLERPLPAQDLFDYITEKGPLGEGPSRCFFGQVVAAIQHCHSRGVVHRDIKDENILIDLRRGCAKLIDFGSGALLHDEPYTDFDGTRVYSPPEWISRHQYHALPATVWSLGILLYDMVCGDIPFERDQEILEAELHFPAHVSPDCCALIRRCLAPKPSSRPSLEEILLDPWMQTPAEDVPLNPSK
T2 sequence (P11309 2-313): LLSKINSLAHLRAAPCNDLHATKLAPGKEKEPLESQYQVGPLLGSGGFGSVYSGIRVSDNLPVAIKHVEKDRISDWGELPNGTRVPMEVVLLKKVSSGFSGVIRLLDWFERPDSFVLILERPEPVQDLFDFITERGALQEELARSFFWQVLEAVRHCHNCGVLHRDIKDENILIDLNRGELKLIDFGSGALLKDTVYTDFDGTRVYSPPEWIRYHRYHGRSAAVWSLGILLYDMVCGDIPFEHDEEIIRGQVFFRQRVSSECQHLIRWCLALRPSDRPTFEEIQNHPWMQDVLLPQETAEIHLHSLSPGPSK

inhibition at 0.3 µM (human His-PIM2 [23-299]) | inhibition at 0.3 µM (human His-PIM1 [2-313]; [1]) | Compound | inhibition at 0.3 µM (human His-PIM1 [2-313])
> 95% | > 95% | N[C@H]1CN(c2c(Cl)cccc2/C=C2\SC(=O)NC2=O)C[C@@H]1O [Example 122T, (Z)-5-(2-((3S,4S)-3-amino-4-hydroxypyrrolidin-1-yl)-3-chlorobenzylidene)thiazolidine-2,4-dione hydrochloride] | 
> 95% | > 95% | CNC1CN(c2c(Cl)cccc2/C=C2\SC(=O)NC2=O)CCC1C (centres unmarked) [Example 122U, (Z)-5-(3-chloro-2-(4-methyl-3-(methylamino)piperidin-1-yl)benzylidene)thiazolidine-2,4-dione hydrochloride] | 
> 95% | > 95% | CC1CCN(c2c(Cl)cccc2/C=C2\SC(=O)NC2=O)CC1N (centres unmarked) [Example 122V, (Z)-5-(2-(3-amino-4-mnethylpiperidin-1-yl)-3-chlorobenzylidene)thiazolidine-2,4-dione hydrochloride] | 
> 95% | > 95% | N[C@@H]1CCCN(c2ccccc2/C=C2\SC(=O)NC2=O)C1 [Example 122W, (R,Z)-5-(2-(3-aminopiperidin-1-yl)benzylidene)thiazolidine-2,4-dione hydrochloride] | 
67.1% | > 95% | N[C@H]1CCN(c2ccccc2/C=C2\SC(=O)NC2=O)C1 [Example 122X, (S,Z)-5-(2-(3-aminopyrrolidin-1-yl)benzylidene)thiazolidine-2,4-dione hydrochloride] | 
> 95% | > 95% | N[C@@H]1CCCN(c2c(/C=C3\SC(=O)NC3=O)cccc2OCC(F)(F)F)C1 [Example 122Y, (R,Z)-5-(2-(3-aminopiperidin-1-yl)-3-(2,2,2-trifluoroethoxy)benzylidene)thiazolidine-2,4-dione hydrochloride] | 
> 95% | > 95% | N[C@H]1CCN(c2c(/C=C3\SC(=O)NC3=O)cccc2OCC(F)(F)F)C1 [Example 122Z, (S,Z)-5-(2-(3-aminopyrrolidin-1-yl)-3-(2,2,2-trifluoroethoxy)benzylidene)thiazolidine-2,4-dione hydrochloride] | 
> 95% | > 95% | NCCC(=O)N1CCN(c2ccccc2/C=C2\SC(=O)NC2=O)CC1 [Example 129A] | 
> 95% | > 95% | NCCCN[C@@H]1CCCN(c2c(Cl)cccc2/C=C2\SC(=O)NC2=O)C1 [Example 129B] | 
52.1% | 85% | COc1ccc(OCCCN)c(C=C2SC(=O)NC2=O)c1 [Example 129C] | 
< 5% | 27.1% | COc1cc(/C=C2\SC(=O)NC2=O)c(N2CCC(NC(C)=O)C2)cc1OC (centres unmarked) [Example 131A] | 
< 5% | < 5% | CC(=O)Nc1ccc(N2CCC(N(C)C)C2)c(/C=C2\SC(=O)NC2=O)c1 (centres unmarked) [Example 131B] | 

Second part, the molecule before the results:

Compound | inhibition at 0.3 µM (human His-PIM2 [23-299]) | inhibition at 0.3 µM (human His-PIM1 [2-313]; [1]) | inhibition at 0.3 µM (human His-PIM1 [2-313])
NCCCN[C@H]1CCN(c2ccc(C(F)(F)F)cc2/C=C2\SC(=O)NC2=O)C1 [Example 123, (S,Z)-5-(2-(3-(3-aminopropylamino)pyrrolidin-1-yl)-5-(trifluoromethyl)benzylidene)thiazolidine-2,4-dione hydrochloride] | > 95% | > 95% | 
COc1cccc(/C=C2\SC(=O)NC2=O)c1N1CC[C@H](NCCCN)C1 [Example 124] | > 95% | > 95% | 
NCCCN[C@H]1CCN(c2c(Cl)cccc2/C=C2\SC(=O)NC2=O)C1 [Example 125] | > 95% | > 95% | 
COc1cc(/C=C2\SC(=O)NC2=O)c(N2CCC(NCCCN)C2)cc1OC (centres unmarked) [Example 126] | > 95% | > 95% | 
NCCCN1CCN(c2ccccc2/C=C2\SC(=O)NC2=O)CC1 [Example 127] | > 95% | > 95% | 
COc1cc(/C=C2\SC(=O)NC2=O)c(N2CCC(NC(=O)CCN)C2)cc1OC (centres unmarked) [Example 128] | 49% | 81.2% | 
CC(=O)N1CCN(c2ccccc2/C=C2\SC(=O)NC2=O)CC1 [Example 130, (5Z)-5-[2-(4-acetylpiperazin-1-yl)benzylidene]-1,3-thiazolidine-2,4-dione] | 45.5% |  | 66.2%
COc1cc(/C=C2\SC(=O)NC2=O)c(N2CCC(NCCO)C2)cc1OC (centres unmarked) [Example 132, (Z)-5-(2-(3-(2-hydroxyethylamino)pyrrolidin-1-yl)-4,5-dimethoxybenzylidene)thiazolidine-2,4-dione] | 88.1% | 93% | 
O=C1NC(=O)/C(=C/c2cccc(Cl)c2N2CCC[C@@H](NCCO)C2)S1 [Example 133] | 93.4% | > 95% | 
O=C1NC(=O)/C(=C/c2cccc(Cl)c2N2CCC[C@@H](NCCCO)C2)S1 [Example 134] | 85.2% | > 95% | 
Cn1ccnc1C(=O)N[C@H]1CCN(c2c(Cl)cccc2/C=C2\SC(=O)NC2=O)C1 [Example 135, (S,Z)-N-(1-(2-chloro-6-((2,4-dioxothiazolidin-5-ylidene)methyl)phenyl)pyrrolidin-3-yl)-1-methyl-1H-imidazole-2-carboxamide] | 10.8% | 42.5% | 
COCC(=O)N[C@H]1CCN(c2c(Cl)cccc2/C=C2\SC(=O)NC2=O)C1 [Example 136] | 44.6% | 82.8% | 
Cn1ccc(C(=O)N[C@H]2CCN(c3c(Cl)cccc3/C=C3\SC(=O)NC3=O)C2)n1 [Example 137] | 18.6% | 55.1% | 
NC(=O)NCC(=O)N[C@H]1CCN(c2c(Cl)cccc2/C=C2\SC(=O)NC2=O)C1 [Example 138] | 63.2% | 87.9% | 
O=C(Cc1cccnc1)N[C@H]1CCN(c2c(Cl)cccc2/C=C2\SC(=O)NC2=O)C1 [Example 139] | 15.1% | 58.1% | 
O=C(Cc1ccncc1)N[C@H]1CCN(c2c(Cl)cccc2/C=C2\SC(=O)NC2=O)C1 [Example 140] | 52% | 73.3% | 
Cn1cc(C(=O)N[C@H]2CCN(c3c(Cl)cccc3/C=C3\SC(=O)NC3=O)C2)cn1 [Example 141] | < 5% | 34.9% | 
O=C(CN1CC[S+]([O-])CC1)N[C@H]1CCN(c2c(Cl)cccc2/C=C2\SC(=O)NC2=O)C1 [Example 142] | 75.2% | 86.1% | 
NS(=O)(=O)CCCC(=O)N[C@H]1CCN(c2c(Cl)cccc2/C=C2\SC(=O)NC2=O)C1 [Example 143] | 49.8% | 85.9% | 
CN(C)C(=O)CCC(=O)N[C@H]1CCN(c2c(Cl)cccc2/C=C2\SC(=O)NC2=O)C1 [Example 144] | 21.2% | 63.2% | 
CN(C)CC(=O)N[C@H]1CCN(c2c(Cl)cccc2/C=C2\SC(=O)NC2=O)C1 [Example 145] | 80.1% | > 95% | 
N#CCC(=O)N[C@H]1CCN(c2c(Cl)cccc2/C=C2\SC(=O)NC2=O)C1 [Example 146] | 48.5% | 88.9% | 
CC(=O)NCC(=O)N[C@H]1CCN(c2c(Cl)cccc2/C=C2\SC(=O)NC2=O)C1 [Example 147] | 36.4% | 74.3% | 
CCCN(CCC)[C@@H]1CCCN(c2c(Cl)cccc2/C=C2\SC(=O)NC2=O)C1 [Example 148, (R,Z)-5-(3-chloro-2-(3-(dipropylamino)piperidin-1-yl)benzylidene)thiazolidine-2,4-dione] | 60.8% | 91.5% | 
O=C1NC(=O)/C(=C/c2cccc(Cl)c2N2CCC[C@@H](NCCC(F)(F)F)C2)S1 [Example 149] | 75.4% | > 95% | 
COc1ccc(OCCCNC(C)C)c(C=C2SC(=O)NC2=O)c1 [Example 150] | 31.7% | 79.8% | 
CN(C)C1CCN(c2ccc(N)cc2/C=C2\SC(=O)NC2=O)C1 (centres unmarked) [Example 151, (Z)-5-(5-amino-2-(3-(dimethylamino)pyrrolidin-1-yl)benzylidene)thiazolidine-2,4-dione] | 13.5% | 31.5% | 
COc1cc(N)c(/C=C2\SC(=O)NC2=O)cc1OC [Example 152] | 16.7% | 10.8% | 
